This note sets out measurements from patent publication US20260167632A1, “NICOTINAMIDE DERIVATIVES FOR USE IN TREATING DISORDERS ASSOCIATED WITH KCNK13 ACTIVITY” (Cerevance, Inc., priority 2022, published 2026).

The IC50 is the point on the concentration scale where inhibition reaches its midpoint.

Assay [1] relates to Mouse primary microglia IL-1β. As to the kind of experiment: Inflammasome assay in primary mouse postnatal microglia using LPS/0 mM extracellular K+ (IL-1β release). Format: cell-based. Particulars: 100 ng/mL LPS 3.5 h, compound 30 min, K+ free buffer 2 h, IL-1β levels by MesoScale. The procedure: 3. Inflammasome Assay in Primary Mouse Postnatal Microglia Using LPS/0 mM Extracellular K^+
Newly shaken mouse microglia cells were added to a 96-well plate and left to adhere overnight. After this time, 100 ng/mL LPS was added to each well and incubated at 37° C. for 3.5 hours, at which point compound addition was undertaken and plates incubated at 37° C. for an additional 30 minutes. After this time, the medium in each well was removed and replaced with K^+ free buffer and the plates then incubated for an additional 2 hours at 37° C. Measurement of IL-1β levels in the sample wells was undertaken using MesoScale Discovery™ MESO QuickPlex SQ 120 and IL-1β antibodies from mouse IL-1β DuoSet ELISA kit (R&D System, DY401).

The next assay has as its target T1, human KCNK13 (Homo sapiens, UniProt Q9HB14).
T1 construct: expressed in transfected cells
T1 sequence (Q9HB14 1-408): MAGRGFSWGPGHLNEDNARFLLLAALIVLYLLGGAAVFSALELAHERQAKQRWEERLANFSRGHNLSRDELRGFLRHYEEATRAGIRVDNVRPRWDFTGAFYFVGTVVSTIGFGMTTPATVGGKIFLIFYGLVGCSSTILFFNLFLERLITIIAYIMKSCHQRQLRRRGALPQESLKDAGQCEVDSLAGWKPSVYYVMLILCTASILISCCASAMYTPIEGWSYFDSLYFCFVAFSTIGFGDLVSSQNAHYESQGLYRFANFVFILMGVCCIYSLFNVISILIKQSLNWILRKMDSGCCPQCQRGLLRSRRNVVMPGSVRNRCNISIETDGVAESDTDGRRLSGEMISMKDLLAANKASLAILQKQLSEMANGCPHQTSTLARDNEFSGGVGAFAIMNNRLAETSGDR
Put plainly: KCNK13 antagonist activity, thallium flux FLIPR assay in HEK 293 cells stably expressing human KCNK13. It is filed as cell-based. Particulars: HEK 293 cells stably expressing human KCNK13, Tl+ sensitive dye, compound 15 min before thallium sulfate, ten point curves; read-out: hKCNK13 IC50. The procedure, abridged: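 HEK 293 cells stably expressing human KCNK13, loaded with Tl+-sensitive dye 1 h at room temperature, then exposed to compound for 15 min before thallium sulfate stimulus. Tl+ influx read by FLIPR fluorescence; IC50 from ten-point half-log curves starting at 100 µM, each point averaging two wells.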

Structures are written as SMILES. Some results are limits rather than exact numbers.

`COc1ncc(F)cc1C(=O)N(C)C1CCc2ccccc21` (single isomer, unassigned) [Example 16, N-(2,3-dihydro-1H-inden-1-yl)-5-fluoro-2-methoxy-N-methylnicotinamide]: the values for the IC50 (in assay [1]; on human KCNK13) were no more than 600 nM and no more than 500 nM, respectively. In the case of `COc1ncc(Cl)cc1C(=O)N(C)Cc1cccc(F)c1` [Example 24, 5-chloro-N-(3-fluorobenzyl)-2-methoxy-N-methylnicotinamide], the values for the half-maximal inhibitory concentration (IC50) (in assay [1]; at human KCNK13) were no more than 150 nM and no more than 50 nM, respectively.

With `COc1ncc(F)cc1C(=O)N(C)Cc1ccc(F)cc1F` [Example 39, N-(2,4-difluorobenzyl)-5-fluoro-2-methoxy-N-methylnicotinamide], the half-maximal inhibitory concentration (IC50) in assay [1] was no more than 300 nM; at human KCNK13, no more than 200 nM. For `CN(Cc1cccc(C#N)c1)S(=O)(=O)c1cc(F)cnc1OC(F)F` [Example 106, N-(3-cyanobenzyl)-2-(difluoromethoxy)-5-fluoro-N-methylpyridine-3-sulfonamide], at human KCNK13, the IC50 is no more than 500 nM. For `CN(Cc1cccc(F)c1F)S(=O)(=O)c1cc(F)cnc1OC(F)F` [Example 107, N-(2,3-difluorobenzyl)-2-(difluoromethoxy)-5-fluoro-N-methylpyridine-3-sulfonamide], the IC50 at human KCNK13 is no more than 100 nM. The same measure, in the same setting: next, `CN(Cc1cccc(Cl)c1)S(=O)(=O)c1cc(F)cnc1OC(F)F` [Example 108, N-(3-chlorobenzyl)-2-(difluoromethoxy)-5-fluoro-N-methylpyridine-3-sulfonamide]: no more than 200 nM; `CCN(Cc1cccc(F)c1)S(=O)(=O)c1cc(F)cnc1OC(F)F` [Example 109, 2-(difluoromethoxy)-N-ethyl-5-fluoro-N-(3-fluorobenzyl)pyridine-3-sulfonamide]: no more than 1000 nM; `O=S(=O)(c1cc(F)cnc1OC(F)F)N1CCc2ccccc2C1` [Example 110, 2-((2-(difluoromethoxy)-5-fluoropyridin-3-yl)sulfonyl)-1,2,3,4-tetrahydroisoquinoline]: no more than 100 nM.

Take `O=S(=O)(c1cc(F)cnc1OC(F)F)N1CCc2ccc(F)cc2C1` [Example 111, 2-((2-(difluoromethoxy)-5-fluoropyridin-3-yl)sulfonyl)-7-fluoro-1,2,3,4-tetrahydroisoquinoline]: the IC50 at human KCNK13 was no more than 200 nM. Turning to `CN(Cc1cccc(F)c1)S(=O)(=O)c1cc(F)cnc1OC(F)F` [Example 112, 2-(difluoromethoxy)-5-fluoro-N-(3-fluorobenzyl)-N-methylpyridine-3-sulfonamide], the concentration for half-maximal inhibition (IC50) at human KCNK13 was no more than 100 nM. Same read-out and setting: next, `CN(Cc1cccc(F)c1)S(=O)(=O)c1cc(Cl)cnc1OC(F)F` [Example 113, 5-chloro-2-(difluoromethoxy)-N-(3-fluorobenzyl)-N-methylpyridine-3-sulfonamide]: no more than 500 nM; `O=S(=O)(c1cc(F)cnc1OC(F)F)N1CCOc2ccc(F)cc2C1` [Example 114, 4-((2-(difluoromethoxy)-5-fluoropyridin-3-yl)sulfonyl)-7-fluoro-2,3,4,5-tetrahydrobenzo[f][1,4]oxazepine]: no more than 200 nM. For `O=S(=O)(c1cc(Cl)cnc1OC(F)F)N1CCOc2ccc(F)cc2C1` [Example 115, 4-((5-chloro-2-(difluoromethoxy)pyridin-3-yl)sulfonyl)-7-fluoro-2,3,4,5-tetrahydrobenzo[f][1,4]oxazepine], the IC50 on human KCNK13 is no more than 500 nM. Turning to `O=S(=O)(c1cc(F)cnc1OC(F)F)N1CCc2cc(F)cc(F)c2C1` [Example 116], at human KCNK13, the IC50 is no more than 500 nM. As for `COc1ncc(Cl)cc1C(=O)N(C)Cc1c(F)cccc1F` [Example 117, 5-chloro-N-(2,6-difluorobenzyl)-2-methoxy-N-methylnicotinamide], the 50% inhibitory concentration (IC50) on human KCNK13 was no more than 200 nM. Regarding `COc1ncc(Cl)cc1C(=O)N(C)Cc1c(Cl)cccc1Cl` [Example 118, 5-chloro-N-(2,6-dichlorobenzyl)-2-methoxy-N-methylnicotinamide], on human KCNK13, the IC50 is no more than 200 nM. On the same count and under the same terms, with `CN(C(=O)c1cc(Cl)cnc1OC(F)F)C1CS(=O)(=O)c2ccccc21` (stereo not drawn) [Example 119, 5-chloro-2-(difluoromethoxy)-N-(1,1-dioxido-2,3-dihydrobenzo[b]thiophen-3-yl)-N-methylnicotinamide] the figure was no more than 500 nM; with `N#Cc1cc(F)ccc1S(=O)(=O)N1CCOc2ccc(F)cc2C1` [Example 120, 5-fluoro-2-((7-fluoro-2,3-dihydrobenzo[f][1,4]oxazepin-4(5H)-yl)sulfonyl)benzonitrile], no more than 200 nM.
